# Test results as given in patent US6921764B2, “Thieno-pyrimidin-4-one AMPA antagonists” (Pfizer Inc., priority 1997, dated 2005).
# System: not given
# Settings: not given
row,melting point,SMILES
1,180 to 182 °C,O=c1c2cc(F)ccc2nc(CNc2ccccc2F)n1-c1cccnc1Cl
2,182 to 185 °C,O=c1c2cc(F)ccc2nc(CNc2ncccn2)n1-c1ccccc1Cl
3,190 to 195 °C,Cc1cccc(NCc2nc3ccc(F)cc3c(=O)n2-c2cccnc2Cl)n1
4,90 to 100 °C,Cl.O=c1c2cc(F)ccc2nc(CNc2ccccn2)n1-c1ccccc1Cl
5,105 to 110 °C,"O=c1c2cc(F)ccc2nc(CNc2cccc(CN3CCCC3)c2)n1-c1ccccc1Cl [Example 12, 3-(2-Chloro-phenyl)-6-fluoro-2-[(3-pyrrolidin-1-ylmethyl-phenylamino)-methyl]-3H-quinazolin-4-one]"
6,175 to 176 °C,"O=c1c2sccc2nc(CNc2ccccc2F)n1-c1ccccc1Cl [Example 17, 3-(2-Chloro-phenyl)-2-[(2-fluoro-phenylamino)-methyl]-3H-thieno[3,2-d]pyrimidin-4-one]"

# Second part, the compound before the results:
row,SMILES,melting point
1,N#Cc1ccccc1NCc1nc2ccc(F)cc2c(=O)n1-c1cccnc1Cl,183 to 187 °C
2,O=c1c2cc(F)ccc2nc(CNCc2ccccc2F)n1-c1ccccc1Cl,140 °C
3,N#Cc1cccnc1NCc1nc2ccc(F)cc2c(=O)n1-c1ccccc1Cl,145 to 150 °C
4,Cl.O=c1c2sccc2nc(CNc2cccc(CN3CCCC3)c2)n1-c1ccccc1Cl,148 to 151 °C
5,N#Cc1cccc(NCc2nc3ccc(F)cc3c(=O)n2-c2ccccc2Cl)c1,225 to 228 °C

# System: global and focal ischemic damage
# Settings: focal and global ischemia models; reported in literature; cited from earlier work
row,SMILES,prevention of global and focal ischemic damage
1,"NS(=O)(=O)c1cccc2c1c([N+](=O)[O-])cc1nc(O)c(O)nc12 [NBOX, 2,3-dihydroxy-6-nitro-7-sulfamoylbenzo[f-]quinoxaline]",effective in preventing global and focal ischemic damage

# System: rat global ischemia models
# Settings: reported in literature; cited from earlier work
row,SMILES,neuroprotection in rat global ischemia models
1,CC1=NN=C(c2ccc(N)cc2)c2cc3c(cc2C1)OCO3 [GKYI 52466],effective neuroprotective agent
